Laboratory results reported in article PMC9609971, “Benzimidazole Bearing Thiosemicarbazone Derivatives Act as Potent α-Amylase and α-Glucosidase Inhibitors; Synthesis, Bioactivity Screening and Molecular Docking Study” (Molecules, 2022).

Legend:
[1] = molecular target: crude intestinal α-glucosidase; test: In vitro α-glucosidase activity assay (p-nitrophenyl-α-D-glucopyranoside substrate); format: biochemical; conditions: triplicate; ± SEM
Experimental: The α-Glucosidase activity was determined by a slight modification to the already-reported method. In a 96-well microplate, 10 μL of test samples (5 mg/mL DMSO solution) were reconstituted in 100 μL of 100 mM-phosphate buffer (pH 6.8) and incubated with 50 μL of crude intestinal α-glucosidase for 5 min before 50 μL substrate (5 mM, p-nitrophenyl-α-D-glucopyranoside prepared in the same buffer) was added. The release of p-nitrophenol was measured at 405 nm spectrophotometrically for 5 min after incubation with the substrate. Individual blanks for test samples were prepared to correct background absorbance where the substrate was replaced with 50 μL of the buffer. The control sample contained 10 μL DMSO in place of the test samples. All reactions were carried out in triplicate.
The percentage of enzyme inhibition was calculated as (1 − B/A) × 100.
Where A represents the absorbance of control without test samples, and B represents absorbance in the presence of test samples.

[2] = molecular target: T1, Porcine pancreatic α-amylase (Sus scrofa, UniProt P00690); test: In vitro α-amylase activity assay (starch/dinitrosalicylic acid); format: biochemical; conditions: triplicate; ± SEM
T1 construct: α-amylase solution (Porcine pancreatic α-amylase); from tissue; host or cells: porcine pancreas (from the enzyme's name only)
T1 sequence (P00690 16-511): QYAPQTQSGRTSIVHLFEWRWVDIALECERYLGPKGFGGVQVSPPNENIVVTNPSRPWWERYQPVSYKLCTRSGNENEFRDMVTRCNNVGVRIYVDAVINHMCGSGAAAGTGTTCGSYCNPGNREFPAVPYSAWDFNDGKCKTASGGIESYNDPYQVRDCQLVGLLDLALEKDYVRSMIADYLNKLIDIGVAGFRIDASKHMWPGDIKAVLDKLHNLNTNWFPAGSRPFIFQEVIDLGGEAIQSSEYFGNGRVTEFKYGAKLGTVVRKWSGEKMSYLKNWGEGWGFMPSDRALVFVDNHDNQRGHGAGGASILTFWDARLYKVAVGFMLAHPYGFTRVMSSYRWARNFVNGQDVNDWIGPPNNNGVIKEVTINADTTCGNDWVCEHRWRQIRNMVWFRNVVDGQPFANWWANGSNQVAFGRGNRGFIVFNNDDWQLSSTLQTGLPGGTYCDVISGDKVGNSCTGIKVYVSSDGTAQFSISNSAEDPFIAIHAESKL
Experimental: α-Amylase inhibition was determined by an assay modified by Kwon, Apostolidis & Shetty. A total of 40 μL of sample and 40 μL of 0.02 M sodium phosphate buffer (pH 6.9 with 0.006 M sodium chloride) containing α-amylase solution (Porcine pancreatic α-amylase) (0.5 mg/mL) were incubated at 25 °C for 10 min. After pre-incubation, 40 μL of a 1% starch solution in 0.02 M sodium phosphate buffer (pH 6.9 with 0.006 M sodium chloride) was added to each tube at 5 s intervals. The reaction mixtures were then incubated at 25 °C for 10 min. The reaction was stopped with 100 μL of dinitrosalicylic acid color reagent. The test tubes were then incubated in a boiling water bath for 5 min and cooled to room temperature. The reaction mixture was then diluted after adding 900 μL of distilled water, and the absorbance was measured at 540 nm. […] All reactions were carried out in triplicate.

Which IC50 [1] does the source give for `Oc1ccc(/C=N/NC(=S)NN=C(CSc2nc3ccccc3[nH]2)c2ccc(Br)cc2)cc1` [derivative 16, N′-(2-((1H-Benzo[d]imidazol-2-yl)thio)-1-(4-bromophenyl)ethylidene)-2-((E)-4-hydroxybenzylidene)hydrazine-1-carbothiohydrazide] here?
The IC50 was 21.1 ± 0.01 µM.

And the IC50 [2]?
The IC50 was 20.1 ± 0.2 µM.

Which results are given for `O=[N+]([O-])c1cccc(/C=N/NC(=S)NN=C(CSc2nc3ccccc3[nH]2)c2ccc(Br)cc2)c1` [derivative 18, N′-(2-((1H-Benzo[d]imidazol-2-yl)thio)-1-(4-bromophenyl)ethylidene)-2-((E)-3-nitrobenzylidene)hydrazine-1-carbothiohydrazide]?
IC50 [1]: 14.1 ± 0.01 µM; IC50 [2]: 13.2 ± 0.2 µM

What does the source list for `O=[N+]([O-])c1cccc(/C=N/NC(=S)NN=C(CSc2nc3ccccc3[nH]2)c2ccc(Cl)c(Cl)c2)c1` [derivative 14, N′-(2-((1H-Benzo[d]imidazol-2-yl)thio)-1-(3,4-dichlorophenyl)ethylidene)-2-((E)-3-nitrobenzylidene)hydrazine-1-carbothiohydrazide]?
IC50 [1]: 7.1 ± 0.01 µM; IC50 [2]: 6.1 ± 0.2 µM

For `O=[N+]([O-])c1cccc(/C=N/NC(=S)NN=C(CSc2nc3ccccc3[nH]2)c2ccc(-c3ccccc3)cc2)c1` [derivative 9, N′-(2-((1H-Benzo[d]imidazol-2-yl)thio)-1-([1,1′-biphenyl]-4-yl)ethylidene)-2-((E)-3-nitrobenzylidene)hydrazine-1-carbothiohydrazide], which IC50 [1] is on record?
The IC50 was 14.2 ± 0.2 µM.

And the IC50 [2]?
Its IC50 is 13.1 ± 0.1 µM.

Which IC50 [1] does the source give for `O=[N+]([O-])c1ccc(/C=N/NC(=S)NN=C(CSc2nc3ccccc3[nH]2)c2ccc(Cl)c(Cl)c2)cc1` [derivative 13, N′-(2-((1H-Benzo[d]imidazol-2-yl)thio)-1-(3,4-dichlorophenyl)ethylidene)-2-((E)-4-nitrobenzylidene)hydrazine-1-carbothiohydrazide] here?
The IC50 was 3.1 ± 0.2 µM.

And the IC50 [2]?
The IC50 was 2.1 ± 0.2 µM.

How did the IC50 [1] turn out when `Oc1ccc(/C=N/NC(=S)NN=C(CSc2nc3ccccc3[nH]2)c2ccc(Cl)c(Cl)c2)cc1` [derivative 12, N′-(2-((1H-Benzo[d]imidazol-2-yl)thio)-1-(3,4-dichlorophenyl)ethylidene)-2-((E)-4-hydroxybenzylidene)hydrazine-1-carbothiohydrazide] was run?
The IC50 was 2.2 ± 0.2 µM.

And the IC50 [2]?
The IC50 was 1.1 ± 0.2 µM.

For `O=[N+]([O-])c1ccc(/C=N/NC(=S)NN=C(CSc2nc3ccccc3[nH]2)c2ccc(-c3ccccc3)cc2)cc1` [derivative 8, N′-(2-((1H-Benzo[d]imidazol-2-yl)thio)-1-([1,1′-biphenyl]-4-yl)ethylidene)-2-((E)-4-nitrobenzylidene)hydrazine-1-carbothiohydrazide], which IC50 [1] is on record?
Its IC50 is 17.2 ± 0.1 µM.

What about the IC50 [2] of the same compound?
Its IC50 is 15.2 ± 0.2 µM.

How did the IC50 [1] turn out when `O=[N+]([O-])c1ccccc1/C=N/NC(=S)NN=C(CSc1nc2ccccc2[nH]1)c1ccc(Br)cc1` [derivative 15, N′-(2-((1H-Benzo[d]imidazol-2-yl)thio)-1-(4-bromophenyl)ethylidene)-2-((E)-2-nitrobenzylidene)hydrazine-1-carbothiohydrazide] was run?
Its IC50 is 18.1 ± 0.2 µM.

What about the IC50 [2] of the same compound?
Its IC50 is 17.1 ± 0.01 µM.

`O=[N+]([O-])c1ccccc1/C=N/NC(=S)NN=C(CSc1nc2ccccc2[nH]1)c1ccc(Cl)c(Cl)c1` [derivative 11, N′-(2-((1H-Benzo[d]imidazol-2-yl)thio)-1-(3,4-dichlorophenyl)ethylidene)-2-((E)-2-nitrobenzylidene)hydrazine-1-carbothiohydrazide] was tested. Which IC50 [1] did it give?
The IC50 was 4.2 ± 0.1 µM.

What about the IC50 [2] of the same compound?
Its IC50 is 3.1 ± 0.1 µM.

How did the IC50 [1] turn out when `Fc1cccc(/C=N/NC(=S)N/N=C(\CSc2nc3ccccc3[nH]2)c2cccc(F)c2)c1` [derivative 19] was run?
The IC50 was 1.3 ± 0.2 µM.

What about the IC50 [2] of the same compound?
Its IC50 is 1.2 ± 0.2 µM.

For `Oc1ccc(/C=N/NC(=S)NN=C(CSc2nc3ccccc3[nH]2)c2ccc(-c3ccccc3)cc2)cc1` [derivative 10, N′-(2-((1H-Benzo[d]imidazol-2-yl)thio)-1-([1,1′-biphenyl]-4-yl)ethylidene)-2-((E)-4-hydroxybenzylidene)hydrazine-1-carbothiohydrazide], which IC50 [1] is on record?
The IC50 was 11.2 ± 0.1 µM.

What about the IC50 [2] of the same compound?
The IC50 was 10.2 ± 0.02 µM.

With `O=[N+]([O-])c1cccc(/C=N/NC(=S)N/N=C(\CSc2nc3ccccc3[nH]2)c2ccccc2)c1` [derivative 21, N′-((Z)-2-((1H-Benzo[d]imidazol-2-yl)thio)-1-phenylethylidene)-2-((E)-3-nitrobenzylidene)hydrazine-1-carbothiohydrazide] as the compound, how does the IC50 [1] read?
The IC50 was 22.1 ± 0.2 µM.

And the IC50 [2]?
The IC50 was 21.1 ± 0.01 µM.

Which results are given for “N′-((Z)-2-((1H-Benzo[d]imidazol-2-yl)thio)-1-(3-fluorophenyl)ethylidene)-2-((E)-2-methyl-4-nitrobenzylidene)hydrazine-1-carbothiohydrazide [derivative 20]”?
IC50 [1]: 1.6 ± 0.2 µM; IC50 [2]: 1.4 ± 0.01 µM

Which results are given for `O=[N+]([O-])c1ccccc1/C=N/NC(=S)NN=C(CSc1nc2ccccc2[nH]1)c1ccc(-c2ccccc2)cc1` [derivative 7, N′-(2-((1H-Benzo[d]imidazol-2-yl)thio)-1-([1,1′-biphenyl]-4-yl)ethylidene)-2-((E)-2-nitrobenzylidene)hydrazine-1-carbothiohydrazide]?
IC50 [1]: 14.2 ± 0.1 µM; IC50 [2]: 16.1 ± 0.01 µM

With `O=[N+]([O-])c1ccc(/C=N/NC(=S)NN=C(CSc2nc3ccccc3[nH]2)c2ccc(Br)cc2)cc1` [derivative 17, N′-(2-((1H-Benzo[d]imidazol-2-yl)thio)-1-(4-bromophenyl)ethylidene)-2-((E)-4-nitrobenzylidene)hydrazine-1-carbothiohydrazide] as the compound, how does the IC50 [1] read?
The IC50 was 16.1 ± 0.01 µM.

What about the IC50 [2] of the same compound?
Its IC50 is 15.1 ± 0.2 µM.
